US20240207265A1, “TREATMENT OF CNS DISEASES WITH sGC STIMULATORS” (Tisento Therapeutics Inc., priority 2021, published 2024)
pEC50: −log10 of the molar value.

Biological target: T1, human α2β1 sGC isozyme (Homo sapiens, UniProt P33402+Q02153)
T1 construct: host or cells: CHO-K1
T1 sequence (P33402 1-732): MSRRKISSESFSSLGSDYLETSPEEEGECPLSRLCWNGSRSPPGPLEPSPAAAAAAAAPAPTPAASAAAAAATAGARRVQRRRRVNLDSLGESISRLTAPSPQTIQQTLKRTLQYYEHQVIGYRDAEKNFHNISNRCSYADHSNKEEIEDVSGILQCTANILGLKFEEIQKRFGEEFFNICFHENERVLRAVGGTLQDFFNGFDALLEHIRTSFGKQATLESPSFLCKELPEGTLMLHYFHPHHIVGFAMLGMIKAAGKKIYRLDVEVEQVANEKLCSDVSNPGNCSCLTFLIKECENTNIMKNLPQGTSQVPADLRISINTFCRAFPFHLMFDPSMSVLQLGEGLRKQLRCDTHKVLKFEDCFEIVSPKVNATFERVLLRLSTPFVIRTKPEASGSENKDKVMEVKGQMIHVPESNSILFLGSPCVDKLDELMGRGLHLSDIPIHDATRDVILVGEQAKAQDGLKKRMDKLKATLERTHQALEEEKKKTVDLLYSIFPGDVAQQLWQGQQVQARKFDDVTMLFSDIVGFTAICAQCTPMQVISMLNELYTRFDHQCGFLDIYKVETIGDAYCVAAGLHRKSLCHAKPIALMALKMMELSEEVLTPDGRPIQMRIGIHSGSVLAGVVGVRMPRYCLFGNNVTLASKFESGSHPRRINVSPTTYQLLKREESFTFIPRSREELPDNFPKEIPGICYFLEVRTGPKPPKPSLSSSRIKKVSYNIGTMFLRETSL
T1 sequence (Q02153 1-619): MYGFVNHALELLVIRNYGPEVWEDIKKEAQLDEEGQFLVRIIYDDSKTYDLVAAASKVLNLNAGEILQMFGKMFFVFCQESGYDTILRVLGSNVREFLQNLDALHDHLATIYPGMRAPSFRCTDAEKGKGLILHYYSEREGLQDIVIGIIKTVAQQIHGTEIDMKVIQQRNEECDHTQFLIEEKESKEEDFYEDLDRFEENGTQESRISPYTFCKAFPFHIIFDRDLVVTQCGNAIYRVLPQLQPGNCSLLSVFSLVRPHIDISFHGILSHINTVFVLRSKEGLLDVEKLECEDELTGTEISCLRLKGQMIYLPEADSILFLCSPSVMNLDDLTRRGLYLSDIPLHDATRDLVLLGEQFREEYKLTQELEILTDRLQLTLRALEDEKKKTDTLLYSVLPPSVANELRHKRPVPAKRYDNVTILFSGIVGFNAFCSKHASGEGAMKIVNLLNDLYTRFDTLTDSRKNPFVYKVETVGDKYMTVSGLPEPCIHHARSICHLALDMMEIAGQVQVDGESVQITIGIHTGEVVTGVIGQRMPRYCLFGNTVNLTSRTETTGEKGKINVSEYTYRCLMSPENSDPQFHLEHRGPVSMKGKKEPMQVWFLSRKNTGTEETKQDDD
Assay: cGMP assay in CHO-K1 cells stably expressing human α2β1 sGC isozyme
Type: cell-based
Conditions: 10 μM DETA-NONOate
Method: sGC stimulators were dissolved in DMSO as a 10 mM solution and stored at −20° C. To achieve desired test concentrations, stock concentrations were serially diluted into DMSO and then diluted to the appropriate concentration in assay buffer.
CHO-K1 cells stably transfected with human α2β1 sGC isozyme (generated by GenScript for Ironwood) were cultured in F-12K medium (ATCC catalog #30-2004) with 10% fetal calf serum, 4 μg/mL puromycin (Gibco catalog #A11138-03) and 0.4 mg/mL of geneticin (Gibco catalog #10131-027) in a 95% humidified atmosphere containing 5% CO2 in air at 37° C. For GC activity assays, cells were seeded in 384 well poly-D-lysine coated flat bottom plates (Fisher Scientific #08-774-311) in either 50 μL or 70 μL medium at a density of either 3×10^4 cells/well or 15×10^3, respectively. Cells were incubated for 24 hours at 37° C. in a humidified chamber supplemented with 5% CO2.
For each test concentration, the compound was diluted in 100% DMSO to 100-fold of its final assay concentration. Immediately prior to the assay, the solution was diluted 20-fold into HBSS containing calcium, magnesium, and 50 μM DETA-NONOate (5× the final assay concentration). Medium was removed and cells were washed once with 40 μL of HBSS. Cells were then incubated with 40 μL of a solution containing 0.5 mM IBMX in HBSS for 15 min at 37° C. 10 μL from the sGC stimulator/HBSS/DETA-NONOate plate was added to the cells, which were incubated for an additional 20 min at 37° C. Final DMSO concentration was 1%, final DETA-NONOate concentration was 10 μM; and final compound concentrations were 30,000 nM, 6000 nM, 1200 nM, 240 nM, 48 nM, 9.6 nM, 1.92 nM, 0.384 nM, 0.077 nM, 0.015 nM, or 0.003 nM.
Following incubation with compound, assay buffer was removed and 50 μL of ice-cold 10% acetic acid+150 ng/mL internal standard (+3 cGMP) was added to each well. Samples were incubated on ice for 30-60 min. Following centrifugation at 4° C. for 5 min at 1000×g to pellet cell debris, the supernatant was transferred to a clean plate and the samples analyzed for cGMP content.
Data were analyzed with a 4-parameter fit (log(agonist) vs. response-variable slope) using GraphPad Prism Software v.8. The EC50 was interpolated from the curve fit and is defined as the concentration at which the compound elicits 50% of its maximal response. When the experiment was carried out multiple times for a given compound, the geometrical mean of all experiments is reported.

pEC50	SMILES
6.00 to 7.00	Oc1nc(-c2cn3ccnc3c(Cc3ccccc3)n2)ncc1F [Compound I-2, 2-(8-Benzylimidazo[1,2-a]pyrazin-6-yl)-5-fluoropyrimidin-4-ol]
≥ 7.00	Oc1nc(-c2cn3ccnc3c(Cc3cccc(F)c3F)n2)ncc1F [Compound I-4, 2-(8-(2,3-Difluorobenzyl)imidazo[1,2-a]pyrazin-6-yl)-5-fluoropyrimidin-4-ol]
≥ 7.00	Oc1nc(-c2cn3c(F)cnc3c(Cc3cc(F)ccc3F)n2)ncc1F [Compound I-5]
6.00 to 7.00	Cc1cc(F)c(Cc2nc(-c3nccc(O)n3)cn3ccnc23)cc1F [Compound I-15, 2-(8-(2,5-difluoro-4-methylbenzyl)imidazo[1,2-a]pyrazin-6-yl)pyrimidin-4-ol]
≥ 7.00	Oc1nc(-c2cn3ccnc3c(Cc3cc(F)ccc3F)n2)ncc1Cl [Compound I-16, 5-chloro-2-(8-(2,5-difluorobenzyl)imidazo[1,2-a]pyrazin-6-yl)pyrimidin-4-ol]
≥ 7.00	Cc1cc(F)c(Cc2nc(-c3ncc(F)c(O)n3)cn3c(F)cnc23)cc1F [Compound I-18]
≥ 7.00	Cc1cc(F)c(Cc2nc(-c3ncc(F)c(O)n3)cn3ncnc23)cc1F [Compound I-19, 5-Fluoro-2-(8-(2,5-difluoro-4-methylbenzyl)-[1,2,4]triazolo[1,5-a]pyrazin-6-yl)pyrimidin-4-ol]
≥ 7.00	Oc1nc(-c2cn3ccnc3c(Cc3cc(F)ccc3F)n2)ncc1F [Compound I-20, 5-fluoro-2-(8-(2,5-difluorobenzyl)imidazo[1,2-a]pyrazin-6-yl)pyrimidin-4-ol]
≥ 7.00	Oc1nc(-c2cn3ccnc3c(Cc3ccccc3F)n2)ncc1F [Compound I-21]
6.00 to 7.00	Oc1nc(-c2cn3ncnc3c(Cc3ccccc3F)n2)ncc1F [Compound I-23]
